{"source": "PubChem BioAssay AID200", "about": "(DTP/NCI, 2004)", "tested_on": "B6C3F1 mice, B16 melanoma ip, median survival T/C", "assay": "NCI In Vivo Anticancer Drug Screen. Data for tumor model B16 Melanoma (intraperitoneal) in B6C3F1 mice", "settings": "endpoint: median survival time, higher = longer survival", "summary_of_the_method": "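Readout: survival or tumor size in treated mice relative to vehicle controls (T/C). Model uses transplantable tumors grown in mice.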", "key": {"[1]": {"settings": "dose: 400.0 mg/kg/injection, schedule: Q01DX009 (ip), vehicle: saline"}, "[2]": {"settings": "dose: 100.0 mg/kg/injection, schedule: Q01DX009 (ip), vehicle: saline"}, "[3]": {"settings": "dose: 200.0 mg/kg/injection, schedule: Q01DX009 (ip), vehicle: saline"}, "[4]": {"settings": "dose: 50.0 mg/kg/injection, schedule: Q01DX009 (ip), vehicle: Klucel (hydroxypropylcellulose) (HPC)"}, "[5]": {"settings": "dose: 100.0 mg/kg/injection, schedule: Q01DX009 (ip), vehicle: Klucel (hydroxypropylcellulose) (HPC)"}, "[6]": {"settings": "dose: 200.0 mg/kg/injection, schedule: Q01DX009 (ip), vehicle: Klucel (hydroxypropylcellulose) (HPC)"}, "[7]": {"settings": "dose: 400.0 mg/kg/injection, schedule: Q01DX009 (ip), vehicle: Klucel (hydroxypropylcellulose) (HPC)"}, "[8]": {"settings": "dose: 25.0 mg/kg/injection, schedule: Q01DX009 (ip), vehicle: saline"}, "[9]": {"settings": "dose: 50.0 mg/kg/injection, schedule: Q01DX009 (ip), vehicle: saline"}}, "note": "“And” between values parts separate entries of the source, which are not always exact repeats. Identical values can stand only once. Inconclusive results and toxic doses are left out.", "data": [{"compound": "NCc1ccc(O)c(O)c1", "values": [{"measurement": "T/C", "setting": "dose: 28.13 mg/kg/injection, schedule: Q03HX024 (ip), vehicle: saline", "result": "98 % of control"}, {"measurement": "T/C", "setting": "dose: 56.25 mg/kg/injection, schedule: Q03HX024 (ip), vehicle: saline", "result": "107 % of control"}, {"measurement": "T/C", "setting": "dose: 75.0 mg/kg/injection, schedule: Q01DX009 (ip), vehicle: saline", "result": "110 % of control"}, {"measurement": "T/C", "setting": "dose: 225.0 mg/kg/injection, schedule: Q03HX024 (ip), vehicle: saline", "result": "124 % of control"}, {"measurement": "T/C", "setting": "dose: 300.0 mg/kg/injection, schedule: Q01DX009 (ip), vehicle: saline", "result": "114 % of control and 117 % of control"}, {"measurement": "T/C", "setting": "[1]", "result": "117 % of control and 118 % of control"}, {"measurement": "T/C", "setting": "dose: 500.0 mg/kg/injection, schedule: Q01DX009 (ip), vehicle: saline", "result": "117 % of control and 91 % of control"}]}, {"compound": "CSCCC(NC(=O)CN)C(=O)O", "note": "(configuration not stated)", "values": [{"measurement": "T/C", "setting": "[2]", "result": "87 % of control"}, {"measurement": "T/C", "setting": "[3]", "result": "90 % of control"}, {"measurement": "T/C", "setting": "[1]", "result": "91 % of control"}]}, {"compound": "C=C1C(=O)OC2/C=C(\\CO)CC/C=C(\\CO)CC(OC(=O)C(C)C)C12", "note": "(configuration not stated)", "values": [{"measurement": "T/C", "setting": "dose: 3.75 mg/kg/injection, schedule: Q01DX009 (ip), vehicle: Klucel (hydroxypropylcellulose) (HPC)", "result": "103 % of control"}]}, {"compound": "CSc1nc(=O)[nH]nc1SCc1ccccc1", "values": [{"measurement": "T/C", "setting": "dose: 12.5 mg/kg/injection, schedule: Q01DX009 (ip), vehicle: Klucel (hydroxypropylcellulose) (HPC)", "result": "105 % of control"}, {"measurement": "T/C", "setting": "dose: 25.0 mg/kg/injection, schedule: Q01DX009 (ip), vehicle: Klucel (hydroxypropylcellulose) (HPC)", "result": "104 % of control"}, {"measurement": "T/C", "setting": "[4]", "result": "104 % of control"}, {"measurement": "T/C", "setting": "[5]", "result": "107 % of control"}, {"measurement": "T/C", "setting": "[6]", "result": "96 % of control"}, {"measurement": "T/C", "setting": "[7]", "result": "115 % of control"}]}, {"compound": "Cc1ccc(S(=O)(=O)OCOS(=O)(=O)c2ccc(C)cc2)cc1", "values": [{"measurement": "T/C", "setting": "[4]", "result": "120 % of control and 122 % of control"}, {"measurement": "T/C", "setting": "[5]", "result": "117 % of control"}, {"measurement": "T/C", "setting": "[6]", "result": "154 % of control"}, {"measurement": "T/C", "setting": "[7]", "result": "191 % of control"}]}, {"compound": "CN(C)/N=N/c1[nH]cnc1C(N)=O.[Cl][Cu][Cl]", "values": [{"measurement": "T/C", "setting": "dose: 0.5 mg/kg/injection, schedule: Q01DX009 (ip), vehicle: water", "result": "106 % of control"}, {"measurement": "T/C", "setting": "dose: 1.0 mg/kg/injection, schedule: Q01DX009 (ip), vehicle: water", "result": "106 % of control"}, {"measurement": "T/C", "setting": "dose: 2.0 mg/kg/injection, schedule: Q01DX009 (ip), vehicle: water", "result": "115 % of control"}, {"measurement": "T/C", "setting": "dose: 4.0 mg/kg/injection, schedule: Q01DX009 (ip), vehicle: water", "result": "109 % of control"}, {"measurement": "T/C", "setting": "dose: 8.0 mg/kg/injection, schedule: Q01DX009 (ip), vehicle: water", "result": "109 % of control"}]}, {"compound": "COc1cccc2c1C(=O)c1c(O)c3c(c(O)c1C2=O)C[C@@](O)(C(C)O)C[C@@H]3OC1CC(N2CCOCC2)C(O)C(C)O1", "note": "(some centres not stated)", "values": [{"measurement": "T/C", "setting": "dose: 0.06 mg/kg/injection, schedule: Q01DX001 (ip), vehicle: water", "result": "111 % of control"}, {"measurement": "T/C", "setting": "dose: 0.13 mg/kg/injection, schedule: Q01DX001 (ip), vehicle: water", "result": "115 % of control"}, {"measurement": "T/C", "setting": "dose: 62.5 micrograms/kg/injection, schedule: Q01DX001 (ip), vehicle: water", "result": "107 % of control"}, {"measurement": "T/C", "setting": "dose: 125.0 micrograms/kg/injection, schedule: Q01DX001 (ip), vehicle: water", "result": "106 % of control"}, {"measurement": "T/C", "setting": "dose: 250.0 micrograms/kg/injection, schedule: Q01DX001 (ip), vehicle: water", "result": "120 % of control"}]}, {"compound": "C[C@H](CCC[C@H](C)OS(=O)(=O)c1ccccc1)OS(=O)(=O)c1ccccc1", "values": [{"measurement": "T/C", "setting": "dose: 12.5 mg/kg/injection, schedule: Q01DX009 (ip), vehicle: saline with Tween-80", "result": "122 % of control and 101 % of control"}, {"measurement": "T/C", "setting": "dose: 25.0 mg/kg/injection, schedule: Q01DX009 (ip), vehicle: saline with Tween-80", "result": "207 % of control and 97 % of control"}, {"measurement": "T/C", "setting": "dose: 400.0 mg/kg/injection, schedule: Q01DX009 (ip), vehicle: saline with Tween-80", "result": "194 % of control"}]}, {"compound": "CCCCCCCCCCCCOP(N)(=O)OCCCCCCCCCCCC", "values": [{"measurement": "T/C", "setting": "[8]", "result": "100 % of control"}, {"measurement": "T/C", "setting": "[9]", "result": "90 % of control"}, {"measurement": "T/C", "setting": "[2]", "result": "89 % of control"}]}, {"compound": "N=C1CCCS1", "values": [{"measurement": "T/C", "setting": "[8]", "result": "109 % of control"}, {"measurement": "T/C", "setting": "[9]", "result": "120 % of control"}]}, {"compound": "Cc1ccccc1CN1C2=NCCN2C(=O)C2=C1CCN(S(=O)(=O)c1ccc(Cl)c(S(N)(=O)=O)c1)C2", "values": [{"measurement": "T/C", "setting": "dose: 12.5 mg/kg/injection, schedule: Q01DX009 (ip), vehicle: saline", "result": "101 % of control"}, {"measurement": "T/C", "setting": "[8]", "result": "101 % of control"}, {"measurement": "T/C", "setting": "[9]", "result": "95 % of control"}, {"measurement": "T/C", "setting": "[2]", "result": "90 % of control"}, {"measurement": "T/C", "setting": "[3]", "result": "92 % of control"}, {"measurement": "T/C", "setting": "[1]", "result": "90 % of control"}]}, {"compound": "CC(C)C(NC(=O)OCC1c2ccccc2-c2ccccc21)C(=O)O", "note": "(configuration not stated)", "values": [{"measurement": "T/C", "setting": "[5]", "result": "91 % of control"}, {"measurement": "T/C", "setting": "[6]", "result": "91 % of control"}]}]}
